One experiment concerns the target T1, KRAS G12C 1-169, his-tagged protein, GDP-loaded (Homo sapiens, UniProt P01116, G12C).
T1 construct: KRAS G12C 1-169, his-tagged protein, GDP-loaded
The experiment in a line: Biochemical assay: covalent binding of compounds to KRAS G12C, analysed by mass spectrometry. The conditions noted are these: binding measured at 30 min (compounds 247-375). The procedure:
Compounds were tested for activity as follows:
Compounds were diluted to 50× final test concentration in DMSO in 96-well storage plates. […] Reactions were mixed carefully and thoroughly by pipetting up/down with a 200 μl multi-channel pipettor. The plate was sealed well with aluminum plate seal, and stored in drawer at room temperature for 30 min, 2 hour or 24 hrs. 51 μl of 2% formic acid (Fisher cat # A117) in DI H2O was then added to each well followed by mixing with a pipette. The plate was then resealed with aluminum seal and stored on dry ice until analyzed as described below.
The above described assays were analyzed by mass spectrometry according to the following procedure:
The MS instrument is set to positive polarity, 2 GHz resolution, and low mass (1700) mode and allowed to equilibrate for 30 minutes. The instrument is then calibrated, switched to acquisition mode and the appropriate method loaded.
After another 30 minute equilibration time, a blank batch (i.e., buffer) is run to ensure equipment is operating properly. The samples are thawed at 37° C. for 10 minutes, briefly centrifuged, and transfer to the bench top. Wells A1 and H12 are spiked with 1 uL 500 uM internal standard peptide, and the plates centrifuged at 2000×g for 5 minutes. The method is then run and masses of each individual well recorded.
The masses (for which integration data is desired) for each well are pasted into the platemap and exported from the analysis. Masses for the internal standards are exported as well. The data at 50 ppm is extracted for the +19 charge state, and identity of well A1 is assigned using the internal standard spike and integrated. Peak data is exported as a TOF list and the above steps are repeated individually, for the +20, 21, 22, 23, 24, and 25 charge states.
T1 sequence (P01116 1-169 isoform P01116-2 G12C): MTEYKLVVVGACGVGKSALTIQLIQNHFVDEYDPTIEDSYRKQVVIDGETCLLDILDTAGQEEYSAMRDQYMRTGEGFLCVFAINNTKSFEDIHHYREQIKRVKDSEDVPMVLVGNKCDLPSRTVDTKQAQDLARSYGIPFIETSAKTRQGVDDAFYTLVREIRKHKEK
With `C=CC(=O)N1CCN(c2nc(NC3CCN(C)C3)nc3c(F)c(-c4cc(O)cc5ccccc45)c(Cl)cc23)CC1` (stereo not shown) [Compound 360, 1-(4-(6-chloro-8-fluoro-7-(3-hydroxynaphthalen-1-yl)-2-(1-methylpyrrolidin-3-ylamino)quinazolin-4-yl)piperazin-1-yl)prop-2-en-1-one], the Binding % result is “++++ (++++ indicates binding activity greater than 75%)”.
For `C=CC(=O)N1CCN(c2nc(N(C)C)nc3c(F)c(-c4cc(O)cc5ccccc45)c(Cl)cc23)CC1` [Compound 344, 1-(4-(6-chloro-2-(dimethylamino)-8-fluoro-7-(3-hydroxynaphthalen-1-yl)quinazolin-4-yl)piperazin-1-yl)prop-2-en-1-one], the Binding % entry is “+++ (+++ indicates binding activity greater than 50% and up to 75%)”.
`C=CC(=O)N1CCN(c2nc(NC)nc3c(F)c(-c4cc(O)cc5ccccc45)c(Cl)cc23)CC1` [Compound 345, 1-(4-(6-chloro-8-fluoro-7-(3-hydroxynaphthalen-1-yl)-2-(methylamino)quinazolin-4-yl)piperazin-1-yl)prop-2-en-1-one]: the Binding % result is recorded as “++++ (++++ indicates binding activity greater than 75%)”.
As for `C=CC(=O)N1CCN(c2cc(=O)[nH]c3cc(-c4c(C)ccc5[nH]ncc45)c(Cl)cc23)CC1` [Compound 326, 4-(4-acryloylpiperazin-1-yl)-6-chloro-7-(5-methyl-1H-indazol-4-yl)quinolin-2(1H)-one], the Binding % entry is “+ (+ indicates binding activity from 5% to 25%)”.
For `C=CC(=O)N1CCN(c2ncnc3c(F)c(-c4c(F)ccc5cn[nH]c45)c(Cl)cc23)CC1` [Compound 368, 1-(4-(6-chloro-8-fluoro-7-(6-fluoro-1H-indazol-7-yl)quinazolin-4-yl)piperazin-1-yl)prop-2-en-1-one], the Binding % result is given as “++++ (++++ indicates binding activity greater than 75%)”.
As for `C=CC(=O)N1CCN(c2nc(NC3CCN(C)CC3)nc3c(F)c(-c4c(C)ccc5[nH]ncc45)c(Cl)cc23)CC1` [Compound 363, 1-(4-(6-chloro-8-fluoro-7-(5-methyl-1H-indazol-4-yl)-2-(1-methylpiperidin-4-ylamino)quinazolin-4-yl)piperazin-1-yl)prop-2-en-1-one], the Binding % entry is “++++ (++++ indicates binding activity greater than 75%)”.
For `C=CC(=O)N1CCN(c2nc(OCCN(C)C)nc3c(F)c(-c4cc(O)cc5ccccc45)c(Cl)cc23)CC1` [Compound 374, 1-(4-(6-chloro-2-(2-(dimethylamino)ethoxy)-8-fluoro-7-(3-hydroxynaphthalen-1-yl)quinazolin-4-yl)piperazin-1-yl)prop-2-en-1-one], the Binding % entry was “+++ (+++ indicates binding activity greater than 50% and up to 75%)”.
Same read-out and setting: for `C=CC(=O)N1CCN(c2nc(OCCCN3CCOCC3)nc3c(F)c(-c4c(C)ccc5[nH]ncc45)c(Cl)cc23)CC1` [Compound 357, 1-(4-(6-chloro-8-fluoro-7-(5-methyl-1H-indazol-4-yl)-2-(3-morpholinopropoxy)quinazolin-4-yl)piperazin-1-yl)prop-2-en-1-one] the value was “++++ (++++ indicates binding activity greater than 75%)”.
Take `C=CC(=O)N1CCN(c2ncnc3c(F)c(-c4c(O)cccc4F)c(Cl)cc23)CC1` [Compound 370, (R)-1-(4-(6-chloro-8-fluoro-7-(2-fluoro-6-hydroxyphenyl)quinazolin-4-yl)piperazin-1-yl)prop-2-en-1-one]: the Binding % entry is recorded as “+ (+ indicates binding activity from 5% to 25%)”.
For the compound `C=CC(=O)N1CCN(c2nc(NC3CCOC3)nc3c(F)c(-c4c(C)ccc5[nH]ncc45)c(Cl)cc23)CC1` (stereo not shown) [Compound 347, 1-(4-(6-chloro-8-fluoro-7-(5-methyl-1H-indazol-4-yl)-2-(tetrahydrofuran-3-ylamino)quinazolin-4-yl)piperazin-1-yl)prop-2-en-1-one], the Binding % result is “++++ (++++ indicates binding activity greater than 75%)”.
Turning to `C=CC(=O)N1CCN(c2nc(OCCc3nccn3C)nc3c(F)c(-c4c(C)ccc5[nH]ncc45)c(Cl)cc23)CC1` [Compound 369, 1-(4-(6-chloro-8-fluoro-2-(2-(1-methyl-1H-imidazol-2-yl)ethoxy)-7-(5-methyl-1H-indazol-4-yl)quinazolin-4-yl)piperazin-1-yl)prop-2-en-1-one], the Binding % entry is recorded as “++++ (++++ indicates binding activity greater than 75%)”.
Consider `C=CC(=O)N1CCN(c2nc(OCCNC(C)=O)nc3c(F)c(-c4c(C)ccc5[nH]ncc45)c(Cl)cc23)CC1` [Compound 366, N-(2-(4-(4-acryloylpiperazin-1-yl)-6-chloro-8-fluoro-7-(5-methyl-1H-indazol-4-yl)quinazolin-2-yloxy)ethyl)acetamide], for which the Binding % result is given as “++++ (++++ indicates binding activity greater than 75%)”.
Same read-out and setting: for `C=CC(=O)N1CCN(c2nc(OCCN3CCCC3)nc3c(F)c(-c4c(C)ccc5[nH]ncc45)c(Cl)cc23)CC1` [Compound 358, 1-(4-(6-chloro-8-fluoro-7-(5-methyl-1H-indazol-4-yl)-2-(2-(pyrrolidin-1-yl)ethoxy)quinazolin-4-yl)piperazin-1-yl)prop-2-en-1-one] the value was “++++ (++++ indicates binding activity greater than 75%)”; for `C=CC(=O)N1CCN(c2cnnc3cc(-c4cc(O)cc5ccccc45)c(C(F)(F)F)cc23)CC1` [Compound 351, 1-(4-(7-(3-hydroxynaphthalen-1-yl)-6-(trifluoromethyl)cinnolin-4-yl)piperazin-1-yl)prop-2-en-1-one], “++++ (++++ indicates binding activity greater than 75%)”; for `C=CC(=O)N1CCN(c2nc(NC3CCN(CC(F)(F)F)C3)nc3c(F)c(-c4c(C)ccc5[nH]ncc45)c(Cl)cc23)CC1` (stereo not shown) [Compound 354, 1-(4-(6-chloro-8-fluoro-7-(5-methyl-1H-indazol-4-yl)-2-(1-(2,2,2-trifluoroethyl)pyrrolidin-3-ylamino)quinazolin-4-yl)piperazin-1-yl)prop-2-en-1-one], “++++ (++++ indicates binding activity greater than 75%)”.

Staying with this experiment, now noted: binding measured at 2 h (compounds 48-246).
For `C=CC(=O)N1CCN(c2ncnc3cc(N4CCCCC4)c(Cl)cc23)CC1` [Compound 80, 1-(4-(6-chloro-7-(piperidin-1-yl)quinazolin-4-yl)piperazin-1-yl)prop-2-en-1-one], the Binding % result is recorded as “+ (+ indicates binding activity from 5% to 25%)”.
Regarding `C=CC(=O)N1CCN(c2ncnc3cc(-c4ccc(F)cc4C(F)(F)F)c(Cl)cc23)CC1` [Compound 119, 1-(4-(6-chloro-7-(4-fluoro-2-(trifluoromethyl)phe-nyl)quinazolin-4-yl)piperazin-1-yl)prop-2-en-1-one], the Binding % entry was “+++ (+++ indicates binding activity greater than 50% and up to 75%)”.
Consider `C=CC(=O)N1CCN(c2c(C(N)=O)cnc3cc(-c4ccccc4F)c(Cl)cc23)CC1` [Compound 189, 4-(4-acryloylpiperazin-1-yl)-6-chloro-7-(2-fluorophenyl)quinoline-3-carboxamide], for which the Binding % entry is “++ (++ indicates binding activity greater than 25% and up to 50%)”.

The same experiment, now with this note: binding measured at 24 h (compounds 1-47).
As for `C=CC(=O)N1CCN(c2nc(N)nc3cc(Cl)c(-c4ccc(Cl)cc4)cc23)CC1` [Compound 39, 1-(4-(2-amino-7-chloro-6-(4-chlorophenyl)quinazolin-4-yl)piperazin-1-yl)prop-2-en-1-one], the Binding % entry is given as “+ (+ indicates binding activity from 5% to 25%)”.

These data come from patent US10927125B2, “Substituted cinnolines as inhibitors of KRAS G12C” (Araxes Pharma LLC, priority 2013, dated 2021).
